{"source": "patent US10647672B2", "about": "“Modulators of cell adhesion, methods and compositions therefor” (Zonula Incorporated, priority 2017, dated 2020)", "key": {"[1]": {"system": "female mice", "test": "ovulation / corpus luteum formation in hormone-stimulated mice", "format": "in vivo, mouse", "details": "50 mg/kg i.p. twice per day", "procedure": "In these experiments, two groups of female mice (n=6 per group) were injected i.p. (50 μL per injection) twice per day with either vehicle control (saline containing 7.5% DMSO) or vehicle containing compound 15 (50 mg/kg) at the days indicated in FIG. 10. The mice were injected with hormones to stimulate ovulation. FIG. 10 is a schematic showing the injection of hormones into mice to cause follicle maturation and injection of compound 15."}, "[2]": {"system": "3D spheroid N-cadherin mouse fibroblast (LN5) cells", "test": "hanging drop 3D spheroid cell culture assay", "format": "cell-based", "details": "hanging drops incubated 48 h", "procedure": "In these experiments, a total of 2×10^6 originally noncohesive embryonic mouse L929 fibroblasts (L cells) were transfected by electroporation in 400 μl transfection medium (RPMI 1640, 1% dextrose, 1 mM β-mercaptoethanol) with 40 μg pMiwcN chicken N-cadherin expression vector (Miyatani, S., et al., Science, 1989, 245, 631-635; Fujimori T., et al., Development, 1990, 110. 97-104). Neomycin resistance (pwlneo, GIBCO) was included for G418 selection. Transfected cells were diluted 1/100 and placed in medium containing 800 μg/ml G418 (GIBCO). Resistant cells were grown to confluence, detached by trypsin/Ca^2+ treatment, and stained with an anti-chicken N-cadherin antibody (NCD2, Zymed) on ice for 45 min. After several washes in Hanks' balanced salt solution, cells were mixed with a fluorescein isothiocyanate-conjugated secondary antibody and placed on ice for 30 min. N-cadherin-expressing cells were then autocloned into 96-well plates by using the CloneCyt Integrated Deposition System (Becton-Dickinson Immunocytometry Systems). Positive clones were reanalyzed by FACS and the L cell line LN5 was propagated for these studies.\nThe 3D spheroids were generated as follows. Cells were removed from near-confluent plates with TC (0.05% trypsin and 2 mM Ca^2+ in Hank's solution for 5-10 minutes), washed once with 1 mL 4° C. Hank's solution, and suspended at a concentration of 2.5×10^6 cells/ml in complete MEM supplemented with 2 mM CaCl2 and varying concentrations of N-cadherin antagonists (Crocus Laboratories, Montreal, Quebec, Canada). The antagonists were compound 15 (MW=499.43) and compound 16 (MW=499.43). Stock solutions of the antagonists were prepared by dissolving the antagonists in DMSO at concentrations of 30 mM. Controls were made by suspending the cells as described above in the absence of antagonists with only the respective amount of DMSO added. Drops of the cell suspensions (10 microliters each) were deposited on the underside of a 10 cm tissue culture dish lid. The lid was then inverted and placed on dish containing 5 ml of PBS for hydration. Hanging drops were incubated under tissue culture conditions for 48 h, allowing the cells to coalesce at the base of the droplets and to form multi-layer aggregates. The tissue culture dish lid was then removed and the medium was gently aspirated. Aggregates (N=10-20) where then photographed under 4× lens and cell area was analyzed using ImageJ. Statistical differences were determined using ANOVA and Tukey's multiple comparison test.\nEach of the antagonists tested from Crocus Laboratories contained cadherin antagonist properties at different potency levels. We determined the approximate minimum concentration needed for an anti-adhesion dose response on 3D spheroid N-cadherin mouse fibroblast (LN5) cells. […]"}, "[3]": {"system": "Myeloma cells MM.1S", "test": "multiple myeloma cell viability, high content screening of live cells", "format": "cell-based", "details": "24 h post-treatment", "procedure": "Myeloma cells MM.1S (American Type Culture Collection, Manassas, Va., USA) were cultured in RPMI-1640 medium supplemented with 10% fetal bovine serum (Thermo Fisher Scientific, Waltham, Mass., USA), 100 U/mL of penicillin, and […] of streptomycin. The cells were grown at 37° C. in a humidified incubator with 5% CO2.\nIn these experiments, MM.1S cells were pre-labeled with CellTrace Violate (Thermo Fisher Scientific), plated on 96-well plates (1.5×10^5 cells/well) and treated with varying concentrations of compound 15 (1-100 μM) or DMSO (vehicle control). High content screening (CellInsight CX5, Thermo Fisher Scientific) was utilized to quantify the number of live cells (i.e. calcein AM+ cells) 24 h post-treatment. FIG. 13 presents photomicrographs (upper panel) and quantitative data (lower panel) of cells treated with compound 15."}, "[4]": {"system": "cerebellar neurons on 3T3 fibroblasts that express N-cadherin", "test": "neurite outgrowth assay", "format": "cell-based, mouse", "details": "10 micromolar; 18 hours culture", "procedure": "Within a representative neurite outgrowth assay, neurons are cultured on a monolayer of cells (e.g., 3T3 fibroblasts) that express N-cadherin. […] For example, neurons can be cultured on monolayers of 3T3 cells transfected with cDNA encoding N-cadherin essentially as described by Doherty, P. and Walsh, F. S., Curr. Op. Neurobiol. 4:49-55, 1994; Williams, E. J., et al., Neuron 13:583-594, 1994; Hall, H., et al., Cell Adhesion and Commun. 3:441-450, 1996; Doherty, P. and Walsh, F. S., Mol. Cell. Neurosci. 8:99-111, 1994; and Safell, J. L., et al., Neuron 18:231-242, 1997. Briefly, monolayers of control 3T3 fibroblasts and 3T3 fibroblasts that express N-cadherin are established by overnight culture of 80,000 cells in individual wells of an 8-chamber well tissue culture slide. 3000 cerebellar neurons isolated from post-natal day 3 mouse brains are cultured for 18 hours on the various monolayers in control media (SATO/2% FCS), or media supplemented with various concentrations of the modulating agent. The cultures are then fixed and stained for GAP43 which specifically binds to the neurons and their neurites. The length of the longest neurite on each GAP43 positive neuron is measured by computer assisted morphometry."}, "[5]": {"system": "classical cadherin-expressing cells", "test": "cell adhesion assay, classical cadherin mediated cell adhesion", "format": "cell-based", "details": "1 micromolar; determined visually within 24 hours", "procedure": "In these experiments, classical cadherin-expressing cells are plated under standard conditions that, in the absence of cell adhesion antagonist, permit cell adhesion. Disruption of cell adhesion is determined visually within 24 hours, by observing retraction of the cells from one another."}}}
{"compound": "COc1ccc(OC[C@@H](O)CNC2CCN(C[C@H](O)COc3ccc(Cl)c(Cl)c3)CC2)cc1", "note": "[Compound 15, (S)-1-(3,4-Dichlorophenoxy)-3-(4-((S)-2-hydroxy-3-(4-methoxyphenoxy)propylamino)piperidin-1-yl)propan-2-ol]", "values": [{"measurement": "corpus luteum formation (luteinized CL-like structures in ovaries)", "setting": "[1]", "value": "fewer clearly luteinized CL-like structures"}, {"measurement": "ovulation", "setting": "[1]", "value": "inhibits ovulation"}, {"measurement": "concentration at which complete disruption occurred", "setting": "[2]", "value": 75, "unit": "µM"}, {"measurement": "minimum concentration required to observe cohesion disruption", "setting": "[2]", "value": 40, "unit": "µM"}, {"measurement": "number of live cells (calcein AM+) on the substratum", "setting": "[3]; 10 μM", "value": "caused a decrease in the number of live cells"}, {"measurement": "number of live cells (calcein AM+) on the substratum", "setting": "[3]; 100 μM", "value": "caused a decrease in the number of live cells"}, {"measurement": "decrease in the mean neurite length relative to the length in the absence of modulating agent", "setting": "[4]", "value": "at least 50%"}, {"measurement": "disruption of cell adhesion (retraction of the cells from one another)", "setting": "[5]", "value": "disruption of cell adhesion is observed"}]}
